Measured values: US20230131025A1, “QUINOLYL PHOSPHINE OXIDE COMPOUND, AND COMPOSITION AND APPLICATION THEREOF” (Betta Pharmaceuticals Co., Ltd., priority 2020, published 2023)
pIC50: −log10 of the molar value.

Tests used:
Assay in all cases: Cell proliferation experiment (CellTiter Glo, 72 hours)
Type in all cases: cell-based
[1] = system: human epidermal cancer cells A431 carrying EGFR WT; details: Homo sapiens, A-431
Experimental: (§1) Experiment 2 Cell Proliferation Experiment
Adherent cells: human epidermal cancer cells A431 carrying EGFR WT.
(§2) RPMI 1640 with 10% FBS and 1% Penicillin-Streptomycin, or DMEM with 10% FBS and 1% Penicillin-Streptomycin.
(§3) a) Diluting compounds being tested (20 mM stock solutions), as an initial concentration, to 10 mM with 100% DMSO, followed by diluting compounds serially in a 3-fold gradient such that each compound is diluted into 12 concentrations (Cat #P-05525, Labcyte).
(§4) b) Diluting the above compound solutions for 100-fold with culture medium to prepare 10-fold working solution.
(§5) b) Seeding cells into 96-well cell culture plate at a density of 2000 or 3000 cells/well, with 135 μL/well.
(§6) a) Adding the compound prepared in step 2 to the cell plate at 15 μL per well, resulting in a final maximum concentration of 10000 nM or 1111 nM. The compounds is diluted serially in a 3-fold gradient such that each compound is diluted into 9 concentrations, wherein the final concentration of DMSO is 0.1%. Blank control wells are added with medium (0.1% DMSO).
(§7) b) Re-incubating the cells in an incubator for 72 hours. 5. Detection
(§8) a) Adding 50 μL of CTG reagent (CellTiter Glo kit, promega, Cat #G7573) to the 96-well cell culture plate.
(§9) b) Shaking the plate for 2 minutes and reacting at room temperature for 10 minutes.
(§10) c) Reading the luminescence signal value (Lum) using PerkinElmer reader.
(§11) The cell survival inhibition rate of each well was calculated. The data was analyzed by GraphPad Prism 6.0 software. The dose-response curve was obtained by fitting the data with a nonlinear regression equation. The IC50 of each compound was calculated as follows:
(§12) Cell survival inhibition rate (%)=(1−(Lumcompound tested−Lummedium control)/(Lumcell control−Lummedium control))×100%
(§13) Y=Min+(Max−Min)/(1+10^((Log IC50−X)*Slope));
(§14) X: logarithm of compound concentration. Y: cell survival inhibition rate.

Ba/F3-Δ19del/T790M/C797S = Ba/F3-Δ19del/T790M/C797S (Homo sapiens, UniProt P00533, T790M/C797S, cells depend on it, form not given); details: read-out: Ba/F3/EGFR Δ19del/T790M/C797S IC50
Chain of Ba/F3-Δ19del/T790M/C797S (P00533 with tags, fused parts or gaps DEL746-750/T790M/C797S, form open): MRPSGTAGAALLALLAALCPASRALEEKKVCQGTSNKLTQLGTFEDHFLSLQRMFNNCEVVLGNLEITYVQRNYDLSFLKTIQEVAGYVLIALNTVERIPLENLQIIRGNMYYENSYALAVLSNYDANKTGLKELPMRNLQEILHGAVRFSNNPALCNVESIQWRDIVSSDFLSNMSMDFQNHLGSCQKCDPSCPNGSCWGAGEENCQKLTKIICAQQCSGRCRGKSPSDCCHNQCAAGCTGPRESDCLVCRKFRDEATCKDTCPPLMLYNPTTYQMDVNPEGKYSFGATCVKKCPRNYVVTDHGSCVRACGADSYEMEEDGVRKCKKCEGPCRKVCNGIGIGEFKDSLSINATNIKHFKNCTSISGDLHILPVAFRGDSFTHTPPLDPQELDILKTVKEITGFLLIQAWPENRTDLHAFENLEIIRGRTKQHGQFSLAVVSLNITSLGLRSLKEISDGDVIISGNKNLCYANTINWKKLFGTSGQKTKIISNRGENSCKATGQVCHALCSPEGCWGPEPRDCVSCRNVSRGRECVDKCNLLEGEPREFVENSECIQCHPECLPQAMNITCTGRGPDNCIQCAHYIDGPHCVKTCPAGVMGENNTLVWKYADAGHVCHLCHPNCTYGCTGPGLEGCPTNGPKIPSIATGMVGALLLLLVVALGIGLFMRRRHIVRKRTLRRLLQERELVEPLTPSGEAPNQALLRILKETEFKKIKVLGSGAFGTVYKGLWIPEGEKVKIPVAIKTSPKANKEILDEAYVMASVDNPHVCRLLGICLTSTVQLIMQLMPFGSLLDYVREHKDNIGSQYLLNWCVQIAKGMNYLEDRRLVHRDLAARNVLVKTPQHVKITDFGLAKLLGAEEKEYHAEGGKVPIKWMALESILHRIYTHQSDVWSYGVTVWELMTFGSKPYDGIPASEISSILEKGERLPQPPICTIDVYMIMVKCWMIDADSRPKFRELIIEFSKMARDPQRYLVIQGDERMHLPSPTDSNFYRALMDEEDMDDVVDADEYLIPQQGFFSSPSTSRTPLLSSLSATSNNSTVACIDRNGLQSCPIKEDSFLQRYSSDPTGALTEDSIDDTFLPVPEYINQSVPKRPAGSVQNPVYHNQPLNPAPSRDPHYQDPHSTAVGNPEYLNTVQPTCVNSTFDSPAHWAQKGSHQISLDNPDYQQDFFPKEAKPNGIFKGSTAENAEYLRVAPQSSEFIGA
Experimental: as §1
(§15) Suspension cells: Ba/F3 cells with stable overexpression of Δ19del/T790M/C797S mutant gene, named Ba/F3-Δ19del/T790M/C797S; Ba/F3 cells with overexpression of EGFR WT, named Ba/F3 EGFR WT.
as §2, §3, §4, §5, §6, §7, §8, §9, §10, §11, §12, §13, §14

Ba/F3 EGFR WT = Ba/F3 EGFR WT (Homo sapiens, UniProt P00533); details: read-out: BaF3 EGFR WT IC50
Chain of Ba/F3 EGFR WT (P00533 whole entry, change not shown): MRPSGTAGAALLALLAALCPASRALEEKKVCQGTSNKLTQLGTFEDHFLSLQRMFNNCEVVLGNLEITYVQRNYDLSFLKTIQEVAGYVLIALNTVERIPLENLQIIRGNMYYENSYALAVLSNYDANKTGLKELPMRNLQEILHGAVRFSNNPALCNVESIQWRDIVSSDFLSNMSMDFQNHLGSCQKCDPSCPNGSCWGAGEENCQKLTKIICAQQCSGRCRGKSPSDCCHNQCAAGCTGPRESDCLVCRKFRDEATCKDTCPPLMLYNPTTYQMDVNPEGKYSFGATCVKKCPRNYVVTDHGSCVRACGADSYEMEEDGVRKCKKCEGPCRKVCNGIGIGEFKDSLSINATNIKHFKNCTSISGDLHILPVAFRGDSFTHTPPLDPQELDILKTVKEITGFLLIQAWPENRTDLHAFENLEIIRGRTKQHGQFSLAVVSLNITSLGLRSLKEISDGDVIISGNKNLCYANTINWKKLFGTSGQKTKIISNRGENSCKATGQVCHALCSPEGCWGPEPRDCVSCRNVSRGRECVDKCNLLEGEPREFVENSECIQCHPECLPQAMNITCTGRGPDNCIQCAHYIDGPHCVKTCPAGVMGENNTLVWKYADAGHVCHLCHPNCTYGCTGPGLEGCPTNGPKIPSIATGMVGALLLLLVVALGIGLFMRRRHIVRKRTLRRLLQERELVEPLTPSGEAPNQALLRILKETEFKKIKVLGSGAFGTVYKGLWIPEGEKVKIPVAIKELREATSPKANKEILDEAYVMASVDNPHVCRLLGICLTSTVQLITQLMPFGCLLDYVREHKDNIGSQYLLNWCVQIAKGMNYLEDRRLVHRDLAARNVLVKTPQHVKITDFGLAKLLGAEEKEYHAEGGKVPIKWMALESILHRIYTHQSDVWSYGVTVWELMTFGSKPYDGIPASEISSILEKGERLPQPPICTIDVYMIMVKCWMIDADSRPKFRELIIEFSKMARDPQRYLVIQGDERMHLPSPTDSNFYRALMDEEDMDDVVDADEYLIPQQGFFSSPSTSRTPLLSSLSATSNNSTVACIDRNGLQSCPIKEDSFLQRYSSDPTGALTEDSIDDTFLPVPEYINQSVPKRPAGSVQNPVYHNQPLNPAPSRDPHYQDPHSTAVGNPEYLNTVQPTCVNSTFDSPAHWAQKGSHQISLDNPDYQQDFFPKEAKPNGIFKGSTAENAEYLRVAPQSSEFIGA
Experimental: as §1, §15, §2, §3, §4, §5, §6, §7, §8, §9, §10, §11, §12, §13, §14

`COc1cc(N2CCN(c3ccncc3)CC2)c(-c2cnn(C)n2)cc1Nc1ncc(Br)c(Nc2ccc3nc(C4CC4)ccc3c2P(C)(C)=O)n1` [Compound J-047, (6-((5-Bromo-2-((2-methoxy-5-(2-methyl-2H-1,2,3-triazol-4-yl)-4-(4-(pyridin-4-yl)piperazin-1-yl)phenyl)amino)pyrimidin-4-yl)amino)-2-cyclopropylquinolin-5-yl)dimethylphosphine oxide] showed a pIC50 [1] of 6.75, a GI50 (Ba/F3-Δ19del/T790M/C797S) of 0.5 nM and a GI50 (Ba/F3 EGFR WT) of 21 nM.

`COc1cc(N2CCN(C3CCCC3)CC2)c(-c2cnn(C)c2)cc1Nc1ncc(Br)c(Nc2ccc3nc(C4CC4)ccc3c2P(C)(C)=O)n1` [Compound J-055, (6-((5-Bromo-2-((4-(4-cyclopentylpiperazin-1-yl)-2-methoxy-5-(1-methyl-1H-pyrazol-4-yl)phenyl)amino)pyrimidin-4-yl)amino)-2-cyclopropylquinolin-5-yl)dimethylphosphine oxide] gave a GI50 (Ba/F3-Δ19del/T790M/C797S) of 12.4 nM and a GI50 (Ba/F3 EGFR WT) of 79 nM.

`COc1cc(N2CCC(N3CCN(C)CC3)CC2)c(-c2ccn(C)c2)cc1Nc1ncc(Br)c(Nc2ccc3nc(C4CC4)ccc3c2P(C)(C)=O)n1` [Compound J-064, (6-((5-Bromo-2-((2-methoxy-5-(1-methyl-1H-pyrrol-3-yl)-4-(4-(4-methylpiperazine-1-yl)piperidin-1-yl)phenyl)amino)pyrimidin-4-yl)amino)-2-cyclopropylquinolin-5-yl)dimethylphosphine oxide] showed a pIC50 [1] of 6.89, a GI50 (Ba/F3-Δ19del/T790M/C797S) of 1.1 nM and a GI50 (Ba/F3 EGFR WT) of 14.6 nM.

Work on `COc1cc(N2CCN(c3nccs3)CC2)c(-c2cnn(C)c2)cc1Nc1ncc(Br)c(Nc2ccc3nc(C4CC4)ccc3c2P(C)(C)=O)n1` [Compound J-048, (6-((5-Bromo-2-((2-methoxy-5-(1-methyl-1H-pyrazol-4-yl)-4-(4-(thiazol-2-yl)piperazin-1-yl)phenyl)amino)pyrimidin-4-yl)amino)-2-cyclopropylquinolin-5-yl)dimethylphosphine oxide] yielded a pIC50 [1] of 5.96, a GI50 (Ba/F3-Δ19del/T790M/C797S) of 7.6 nM and a GI50 (Ba/F3 EGFR WT) of 52 nM.

In the case of `COc1cncc(N2CCN(c3cc(OC)c(Nc4ncc(Br)c(Nc5ccc6nc(C7CC7)ccc6c5P(C)(C)=O)n4)cc3-c3cnn(C)c3)CC2)n1` [Compound J-049, (6-((5-Bromo-2-((2-methoxy-4-(4-(6-methoxypyrazin-2-yl)piperazin-1-yl)-5-(1-methyl-1H-pyrazol-4-yl)phenyl)amino)pyrimidin-4-yl)amino)-2-cyclopropylquinolin-5-yl)dimethylphosphine oxide], the pIC50 [1] was 5.64, the GI50 (Ba/F3-Δ19del/T790M/C797S) was 8.5 nM and the GI50 (Ba/F3 EGFR WT) was 109 nM.

In the case of `COc1cc(N2CCN(C)CC2)c(-c2cnn(C)c2)cc1Nc1ncc(Br)c(Nc2ccc3nc(C4CC4)ccc3c2P(C)(C)=O)n1` [Compound J-054, (6-((5-Bromo-2-((2-methoxy-5-(1-methyl-1H-pyrazol-4-yl)-4-(4-methylpiperazin-1-yl)phenyl)amino)pyrimidin-4-yl)amino)-2-cyclopropylquinolin-5-yl)dimethylphosphine oxide], the pIC50 [1] was 6.84, the GI50 (Ba/F3-Δ19del/T790M/C797S) was 0.8 nM and the GI50 (Ba/F3 EGFR WT) was 15.8 nM.

For `COc1cc(N2CCC(N3CCN(C)CC3)CC2)c(-c2cnn(C)c2)cc1Nc1ncc(Br)c(Nc2ccc3nc(C4CC4)ccc3c2P(C)(C)=O)n1` [Compound J-068, (6-((5-Bromo-2-((2-methoxy-5-(1-methyl-1H-pyrazol-4-yl)-4-(4-(4-methylpiperazine-1-yl)piperidin-1-yl)phenyl)amino)pyrimidin-4-yl)amino)-2-cyclopropylquinolin-5-yl)dimethylphosphine oxide], the pIC50 [1] was 6.70, the GI50 (Ba/F3-Δ19del/T790M/C797S) was 1 nM and the GI50 (Ba/F3 EGFR WT) was 33.2 nM.

For `COc1cc(N2CCN(c3cnc(N(C)C)cn3)CC2)c(-c2cnn(C)c2)cc1Nc1ncc(Br)c(Nc2ccc3nc(C4CC4)ccc3c2P(C)(C)=O)n1` [Compound J-045, (6-((5-Bromo-2-((4-(4-(5-(dimethylamino)pyrazin-2-yl)piperazin-1-yl)-2-methoxy-5-(1-methyl-1H-pyrazol-4-yl)phenyl)amino)pyrimidin-4-yl)amino)-2-cyclopropylquinolin-5-yl)dimethylphosphine oxide], the pIC50 [1] was 6.15, the GI50 (Ba/F3-Δ19del/T790M/C797S) was 13.5 nM and the GI50 (Ba/F3 EGFR WT) was 130 nM.

Work on `COc1cc(N2CCN(c3ccncn3)CC2)c(-c2cnn(C)c2)cc1Nc1ncc(Br)c(Nc2ccc3nc(C4CC4)ccc3c2P(C)(C)=O)n1` [Compound J-060, (6-((5-Bromo-2-((2-methoxy-5-(1-methyl-1H-pyrazol-4-yl)-4-(4-(pyrimidin-4-yl)piperazin-1-yl)phenyl)amino)pyrimidin-4-yl)amino)-2-cyclopropylquinolin-5-yl)dimethylphosphine oxide] yielded a pIC50 [1] of 6.44, a GI50 (Ba/F3-Δ19del/T790M/C797S) of 2.3 nM and a GI50 (Ba/F3 EGFR WT) of 54 nM.

`COc1cc(N2CCN(c3cccc(=O)n3C)CC2)c(-c2cnn(C)c2)cc1Nc1ncc(Br)c(Nc2ccc3nc(C4CC4)ccc3c2P(C)(C)=O)n1` [Compound J-050, 6-(4-(4-((5-Bromo-4-((2-cyclopropyl-5-(dimethylphosphoryl)quinolin-6-yl)amino)pyrimidin-2-yl)amino)-5-methoxy-2-(1-methyl-1H-pyrazol-4-yl)phenyl)piperazin-1-yl)-1-methylpyridin-2(1H)-one] gave a pIC50 [1] of 6.06, a GI50 (Ba/F3-Δ19del/T790M/C797S) of 1.8 nM and a GI50 (Ba/F3 EGFR WT) of 42.2 nM.

`COc1cc(N2CCN(c3cc(OC)c(Nc4ncc(Br)c(Nc5ccc6nc(C7CC7)ccc6c5P(C)(C)=O)n4)cc3-c3cnn(C)c3)CC2)ccn1` [Compound J-043] showed a pIC50 [1] of 6.05, a GI50 (Ba/F3-Δ19del/T790M/C797S) of 10.9 nM and a GI50 (Ba/F3 EGFR WT) of 67.6 nM.

Compound `COc1ncc(N2CCN(c3cc(OC)c(Nc4ncc(Br)c(Nc5ccc6nc(C7CC7)ccc6c5P(C)(C)=O)n4)cc3-c3cnn(C)c3)CC2)cn1` [Compound J-044, (6-((5-Bromo-2-((2-methoxy-4-(4-(2-methoxypyrimidin-5-yl)piperazin-1-yl)-5-(1-methyl-1H-pyrazol-4-yl)phenyl)amino)pyrimidin-4-yl)amino)-2-cyclopropylquinolin-5-yl)dimethylphosphine oxide] has a pIC50 [1] of 6.36, a GI50 (Ba/F3-Δ19del/T790M/C797S) of 1 nM and a GI50 (Ba/F3 EGFR WT) of 25.2 nM.

`COc1cc(N2CCC(N3CCOCC3)CC2)c(-c2cnn(C)c2)cc1Nc1ncc(Br)c(Nc2ccc3nc(C4CC4)ccc3c2P(C)(C)=O)n1` [Compound J-059, (6-((5-Bromo-2-((2-methoxy-5-(1-methyl-1H-pyrazol-4-yl)-4-(4-morpholinopiperidine-1-yl)phenyl)amino)pyrimidin-4-yl)amino)-2-cyclopropylquinolin-5-yl)dimethylphosphine oxide] gave a pIC50 [1] of 6.58, a GI50 (Ba/F3-Δ19del/T790M/C797S) of 0.4 nM and a GI50 (Ba/F3 EGFR WT) of 10.6 nM.

Work on `COc1cc(NCC2CCN(C)CC2)c(-c2cnn(C)c2)cc1Nc1ncc(Br)c(Nc2ccc3nc(C4CC4)ccc3c2P(C)(C)=O)n1` [Compound J-052] yielded a pIC50 [1] of 6.55, a GI50 (Ba/F3-Δ19del/T790M/C797S) of 2.6 nM and a GI50 (Ba/F3 EGFR WT) of 123 nM.

Work on `COc1cc(N2CCN(c3cnccn3)CC2)c(-c2cnn(C)c2)cc1Nc1ncc(Br)c(Nc2ccc3nc(C4CC4)ccc3c2P(C)(C)=O)n1` [Compound J-058, (6-((5-Bromo-2-((2-methoxy-5-(1-methyl-1H-pyrazol-4-yl)-4-(4-(pyrazin-2-yl)piperazin-1-yl)phenyl)amino)pyrimidin-4-yl)amino)-2-cyclopropylquinolin-5-yl)dimethylphosphine oxide] yielded a pIC50 [1] of 6.19, a GI50 (Ba/F3-Δ19del/T790M/C797S) of 5.8 nM and a GI50 (Ba/F3 EGFR WT) of 117 nM.

`COc1cc(N2CCC(N3CCN(C)CC3)CC2)c(-c2cnn(C)c2)cc1Nc1ncc(F)c(Nc2ccc3nc(C4CC4)ccc3c2P(C)(C)=O)n1` [Compound J-065] was tested, and the pIC50 [1] was 6.37, the GI50 (Ba/F3-Δ19del/T790M/C797S) was 13 nM and the GI50 (Ba/F3 EGFR WT) was 73 nM.

In the case of `COc1cc(N2CCN(C3CCN(C)CC3)CC2)c(-c2cnn(C)c2)cc1Nc1ncc(Br)c(Nc2ccc3nc(C4CC4)ccc3c2P(C)(C)=O)n1` [Compound J-066, (6-((5-Bromo-2-((2-methoxy-5-(1-methyl-1H-pyrazol-4-yl)-4-(4-(1-methylpiperidine-4-yl)piperazin-1-yl)phenyl)amino)pyrimidin-4-yl)amino)-2-cyclopropylquinolin-5-yl)dimethylphosphine oxide], the pIC50 [1] was 6.59, the GI50 (Ba/F3-Δ19del/T790M/C797S) was 4.4 nM and the GI50 (Ba/F3 EGFR WT) was 77.9 nM.

`COc1cc(N(C)CCN(C)C)c(-c2cnn(C)c2)cc1Nc1ncc(Br)c(Nc2ccc3nc(C4CC4)ccc3c2P(C)(C)=O)n1` [Compound J-062, (6-((5-Bromo-2-((4-((2-(dimethylamino)ethyl)(methyl)amino)-2-methoxy-5-(1-methyl-1H-pyrazol-4-yl)phenyl)amino)pyrimidin-4-yl)amino)-2-cyclopropylquinolin-5-yl)dimethylphosphine oxide] showed a pIC50 [1] of 6.80, a GI50 (Ba/F3-Δ19del/T790M/C797S) of 1.4 nM and a GI50 (Ba/F3 EGFR WT) of 46.2 nM.
